# Data from publication PMC9130233, “An inhibitor of RORγ for chronic pulmonary obstructive disease treatment” (Scientific Reports, 2022).
# pIC50: −log10 of the molar value. Like-named read-outs stand apart in the source and are kept apart here.
# Assays:
# hERG = hERG (Homo sapiens, UniProt Q12809); assay: hERG; conditions: rated moderate
# human RORγ LBD = target: T1, human RORγ LBD (Homo sapiens, UniProt P51449); assay: RORγt-LBD co-activator ligand binding TR-FRET assay, human; conditions: n = 15
# T1 construct: RORC-LBD region 229-497aa; made in house; host or cells: Escherichia coli BL21-DE3
# Source text: To identify small molecule RORγ inhibitors, we conducted in vitro screening using a TR-FRET binding assay to determine the inhibition of RORγ with a series of different compounds. With extensive effort and from hit identification to lead optimization, PCCR-1 was identified[29] (Fig. 1A). Based on the homology of the ligand binding domains (LBD) between different ROR isoforms (hRORα, hRORβ and hRORγ), slight variations have been observed in the LBD regions which possibly lead to differences in competitive binding between the isoforms (Fig. 1B). Simultaneous binding of a tracer and antibody results in an increase in fluorescence resonance energy transfer (FRET), which decreases with displacement of the tracer upon inhibitor binding.
# The human and mouse RORγt cDNA clones were obtained from OriGene (MD USA). […] The next day, plate was read on Infinite F500 reader (Magellan Tecan Switzerland). […] The percent activity of each dilution was determined as the ratio of background corrected signal to the background corrected signal of wells receiving only DMSO. IC50 values were determined by fitting percent inhibition data in GraphPad Prism (version-5.01) software.
# human RORγ = system: T2, human RORγ; assay: Dissociation assay, jump dilution method (TR-FRET), human; assay type: binding
# T2 construct: RORC-LBD region 229-497aa; made in house; host or cells: Escherichia coli BL21-DE3
# Procedure: To understand the inverse agonist behavior at the molecular level, interaction with the nuclear receptor RORγ was analyzed in binding assays by estimating its dissociation constant (Koff) and half-life (t1/2). The binding of a ligand stabilizes the conformation of the LBD while binding of a cofactor modifies receptor activity. Binding reversibility was evaluated by adding an excess of competing ligand in the FRET assay and evaluating the displacement of the tracer with inhibitor. Binding of the PCCR-1 with the LBD caused reduction in FRET on antibody addition forming a GST (Glutathione S-transferases) tagged RORγ-antibody complex. The dissociation assay was performed using the jump dilution method with PCCR-1 at a concentration showing maximum binding potency or IC90. The dissociation was tested on addition of an excess of a competitive ligand, the tracer.
# [1] = system: IL-17 from mouse BAL cells; assay: Ex vivo IL-17 release, cultured BAL cells from cigarette smoke exposed mice; assay type: cell-based; conditions: BAL cells from CS exposed mice
# Procedure: The effect of PCCR-1 was evaluated ex vivo using BALf cells from an acute cigarette smoke induced animal model. Animals were exposed to cigarette smoke for 7 days and BALf cells were collected and treated with different doses of PCCR-1 under various stimulatory conditions. […] Stimulation by LPS may represent the inflammatory state during a COPD exacerbation, supporting a potential benefit of PCCR-1 in this disease state.
# C57BL/6 mice were exposed to as per above mentioned protocol. On 7th day, animals were sacrificed and a tracheal cannula was inserted. Three times via the trachea, 1 mL of plain RPMI medium was instilled and recovered by gentle manual aspiration. The recovered BALf was centrifuged, the cell pellet washed twice and finally re-suspended in 5% FBS- RPMI. Isolated BAL cells were pre-incubated with different concentration of PCCR-1 for 60 min, followed by stimulating with 1 µg/ml soluble mouse anti-CD3 and 3 µg/ml mouse anti-CD28 mAbs and/or 100 ng/ml of LPS and incubated for 24-48 h at 37 °C. The supernatant was used for estimating IL-17 by ELISA.
# mPPARγ = assay: Nuclear receptors: functional assay, mPPARγ agonism; assay type: cell-based, mouse; set-up: key: NSE No significant effect; V wk very weak (very low-level agonist activity seen with mPPARγ); conditions: nuclear receptors: functional assays
# Source text: (§1) Based on the homology of the ligand binding domains, 3 different isoforms of ROR (hRORα, hRORβ and hRORγ) are reported. Small variations in the LBD regions possibly lead to differences in competitive binding between the nuclear receptors of the ROR isoforms (Fig. 1b). Similar to the assessment of RORγ binding assay, TR-FRET binding assays were also used to assess the affinity of PCCR-1 for other ROR isoforms. […] This was reconfirmed in cellular functional assays for the selected isoforms and nuclear receptors using Gal4 DBD with luciferase reporter system from Indigo (PA, USA). […] In addition, both cellular agonist and antagonist effects as well as for enzyme activity were evaluated with a known reference compound for each target, using a radiolabeled method (Eurofins Cerep, France, Table 1).
# RORα = system: T3, RORα; assay: TR-FRET selectivity binding assay, RORα; set-up: species or system human
# T3 construct: purchased Invitrogen
# Source text: as §1
# For selectivity, the ROR isoforms RORα, FXR, LXRα, LXRβ, RXR, RARα were incubated with compound for 60 min at 22 °C followed by detection mix containing respective agonist (All trans retinoic acid for RARα, T0901317 for LXRα, LXRβ, 9-cis Retinoic acid for RXR, GW-4064 for FXR) and coactivator peptide (FD22 for RORα, PGC1α for RXR, RARα, TRAP220 for LXRα, LXRβ, SRC2-2 for FXR) and Tb-anti GST antibody prepared in assay buffer were added into a 384-well white plate. Reading taken after overnight incubation and the data analysis done as per the protocol mentioned in RORγt-LBD and co-activator ligand binding assay.
# T1 sequence (P51449 250-518): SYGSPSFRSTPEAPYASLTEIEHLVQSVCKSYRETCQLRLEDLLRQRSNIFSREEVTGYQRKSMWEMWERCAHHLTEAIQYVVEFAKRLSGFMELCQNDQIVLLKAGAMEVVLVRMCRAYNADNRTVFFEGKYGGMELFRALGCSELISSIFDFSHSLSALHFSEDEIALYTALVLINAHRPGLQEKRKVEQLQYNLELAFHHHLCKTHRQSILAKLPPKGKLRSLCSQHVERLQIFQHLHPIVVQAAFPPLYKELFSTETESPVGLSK
# hERG, sequence (Q12809 whole entry, the tested form may be a part): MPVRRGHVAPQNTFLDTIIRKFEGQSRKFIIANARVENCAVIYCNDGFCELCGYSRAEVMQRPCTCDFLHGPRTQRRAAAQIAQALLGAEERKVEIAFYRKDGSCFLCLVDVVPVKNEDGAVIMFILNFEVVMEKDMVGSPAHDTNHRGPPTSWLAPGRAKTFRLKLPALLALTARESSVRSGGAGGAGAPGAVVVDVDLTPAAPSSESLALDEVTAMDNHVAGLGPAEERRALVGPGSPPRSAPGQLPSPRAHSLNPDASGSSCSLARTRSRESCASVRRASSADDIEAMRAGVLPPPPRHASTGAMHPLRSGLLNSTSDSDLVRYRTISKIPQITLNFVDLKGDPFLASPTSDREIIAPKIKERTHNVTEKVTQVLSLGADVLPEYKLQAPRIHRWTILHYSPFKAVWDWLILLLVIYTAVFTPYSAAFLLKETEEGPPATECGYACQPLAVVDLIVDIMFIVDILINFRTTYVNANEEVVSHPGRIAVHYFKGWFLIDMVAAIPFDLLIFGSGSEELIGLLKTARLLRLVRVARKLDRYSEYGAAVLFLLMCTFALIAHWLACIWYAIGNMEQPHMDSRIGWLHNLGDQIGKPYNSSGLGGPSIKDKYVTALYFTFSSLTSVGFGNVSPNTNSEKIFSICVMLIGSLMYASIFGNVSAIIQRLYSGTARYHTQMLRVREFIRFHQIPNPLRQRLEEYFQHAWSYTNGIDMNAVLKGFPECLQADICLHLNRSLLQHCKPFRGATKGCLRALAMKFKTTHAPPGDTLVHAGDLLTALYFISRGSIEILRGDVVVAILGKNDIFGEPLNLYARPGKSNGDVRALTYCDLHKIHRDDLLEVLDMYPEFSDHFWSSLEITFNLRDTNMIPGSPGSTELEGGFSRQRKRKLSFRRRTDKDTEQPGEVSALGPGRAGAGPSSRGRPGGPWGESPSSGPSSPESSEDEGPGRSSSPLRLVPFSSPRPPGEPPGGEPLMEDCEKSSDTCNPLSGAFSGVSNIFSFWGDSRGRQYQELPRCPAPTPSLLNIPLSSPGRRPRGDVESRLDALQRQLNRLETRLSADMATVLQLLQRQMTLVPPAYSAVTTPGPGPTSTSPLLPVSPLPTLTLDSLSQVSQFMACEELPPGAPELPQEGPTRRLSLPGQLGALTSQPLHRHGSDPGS
smiles,measurement,setting,value
CCn1c(C(C)(C)Oc2ccc(F)cc2F)nc2cc(NC(=O)Cc3ccc(S(=O)(=O)CC)cc3)ccc21 [PCCR-1],pIC50,hERG,5.22
same,pIC50,human RORγ LBD,7.46
same,dissociation,human RORγ; after 290 min (~ 5 h),50%
same,t1/2 (target residence time),"human RORγ; human RORγ, jump dilution, PCCR-1 at IC90",4.84 h
same,absolute dissociation,"human RORγ; human, till 3 h of measurement",50%
same,pIC50,"[1]; LPS induced, read-out: IL-17 IC50, Mouse BAL cells: LPS",6.10
same,pIC50,"[1]; anti-CD3 + anti-CD28 induced, read-out: IL-17 IC50, Mouse BAL cells: CD3+CD28",6.04
same,pIC50,"[1]; basal, read-out: IL-17 IC50, Mouse BAL cells: Basal",6.06
same,mPPARγ(agonism),mPPARγ,V wk
same,% Inhibition RORα,RORα; 1 µM,20.91%
same,% Inhibition RORα,RORα; 10 µM,19.82%
same,"Fold over hRORγ, RORα",RORα; vs RORg IC50 31.87 nM,> 313.7 fold
